Consider 3 compounds from PMC7283271, “ADP binding by the Culex quinquefasciatus mosquito D7 salivary protein enhances blood feeding on mammals” (Nature Communications, 2020).

Common to all, as to type: binding
Test [1] addresses T1, CxD7L1 (Culex quinquefasciatus, UniProt A0A1S4K3K8). The test can be described thus: crystal structure ([…] Å) and ITC. More on the design: gene D7L1; mature protein.
Target sequence in this assay (A0A1S4K3K8 17-311): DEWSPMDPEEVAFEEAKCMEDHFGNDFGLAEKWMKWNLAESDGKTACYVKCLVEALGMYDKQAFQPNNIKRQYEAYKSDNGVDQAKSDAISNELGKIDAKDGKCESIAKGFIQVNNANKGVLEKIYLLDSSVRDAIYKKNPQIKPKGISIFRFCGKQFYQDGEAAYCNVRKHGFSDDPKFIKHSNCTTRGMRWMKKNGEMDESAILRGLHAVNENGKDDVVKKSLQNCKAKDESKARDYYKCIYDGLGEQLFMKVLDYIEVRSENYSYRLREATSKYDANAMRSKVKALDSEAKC
The target of another test is T2, CxD7L2 (Culex quinquefasciatus, UniProt B0X6Z1).
T2 construct: gene D7L2; full-length mature protein, C-terminal 6x-His, HEK293
T2 sequence (B0X6Z1 21-313 limits assumed): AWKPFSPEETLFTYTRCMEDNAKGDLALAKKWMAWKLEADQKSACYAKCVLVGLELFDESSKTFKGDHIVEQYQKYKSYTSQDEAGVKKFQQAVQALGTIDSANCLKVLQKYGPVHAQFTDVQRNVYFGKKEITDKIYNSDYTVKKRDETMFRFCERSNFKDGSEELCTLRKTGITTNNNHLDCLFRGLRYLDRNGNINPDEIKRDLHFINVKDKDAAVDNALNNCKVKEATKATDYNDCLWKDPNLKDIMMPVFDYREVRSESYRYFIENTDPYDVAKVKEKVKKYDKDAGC
The test can be described thus: ITC.

Test [2] concerns the target T1, CxD7L1. The test can be described thus: ITC. On the set-up: gene D7L1; mature protein, C-terminal 6x-His, HEK293. A general note: ITC needs no label: the signal is the heat of the interaction.
Target sequence in this assay (A0A1S4K3K8 17-311 limits assumed): as the sequence (A0A1S4K3K8 17-311) above

For the compound `Nc1ncnc2c1ncn2[C@@H]1O[C@H](COP(=O)(O)OP(=O)(O)O)[C@@H](O)[C@H]1O` [ADP], binding on CxD7L1 [1] was characterised by a dissociation constant (Kd) of 32.7 nM.
In turn, `CNC[C@H](O)c1ccc(O)c(O)c1` [Epinephrine] yielded a dissociation constant Kd on CxD7L2 of 226 nM.
Regarding `Nc1ncnc2c1ncn2[C@@H]1O[C@H](CO)[C@@H](O)[C@H]1O` [Adenosine], binding on CxD7L1 [2] was characterised by a dissociation constant (Kd) of 313 nM. In other words, the sub-micromolar range.

The term Kd denotes the equilibrium constant for the complex coming apart.
